Converted amounts (≈) assume the structure as drawn. “And” between values parts separate entries of the source, which are not always exact repeats. Identical values can stand only once. Counter-ions that a name gives are not always drawn. Like-named read-outs stand apart in the source and are kept apart here.
Columns and labels:
Str. pneumoniae A9585 = assay: Antibiotic activity in nutrient broth (MIC), Str. pneumoniae; assay type: cell-based; details: Streptococcus pneumoniae, 45% AAB + 5% serum + 50% broth, 10^-3 dilution of overnight culture, Ex. 1/Ex. 2 figures recalculated on penicillin content
Description: (§1) ANTIBIOTIC ACTIVITY IN NUTRIENT BROTH
(§2) *45% AAB + 5% serum + 50% broth
(§3) **Dilution of overnight broth culture
(§4) +These figures were […] on the basis that there was only 60.61%
(§5) amoxicillin in the sample; in other words, the numerical values were
(§6) lowered, i.e. improved.
(§7) ----//These figures were recalculated on the basis that there was only

Str. pyogenes A9604 = assay: Antibiotic activity in nutrient broth (MIC), Str. pyogenes; assay type: cell-based; details: Streptococcus pyogenes, 45% AAB + 5% serum + 50% broth, 10^-3 dilution of overnight culture, Ex. 1/Ex. 2 figures recalculated on penicillin content
Description: as §1, §2, §3, §4, §5, §6, §7

S. aureus Smith A9537 = assay: Antibiotic activity in nutrient broth (MIC), S. aureus Smith; assay type: cell-based; details: Staphylococcus aureus, 10^-4 dilution, Ex. 1/Ex. 2 figures recalculated on penicillin content
Description: as §1, §3, §4, §5, §6, §7

Sal. enteritidis A9531 = assay: Antibiotic activity in nutrient broth (MIC), Sal. enteritidis; assay type: cell-based; details: Salmonella enterica, 10^-4 dilution, Ex. 1/Ex. 2 figures recalculated on penicillin content
Description: as §1, §3, §4, §5, §6, §7

E. coli Juhl A15119 = assay: Antibiotic activity in nutrient broth (MIC), E. coli Juhl; assay type: cell-based; details: Escherichia coli, JUHLA15119, 10^-4 dilution, Ex. 1/Ex. 2 figures recalculated on penicillin content
Description: as §1, §3, §4, §5, §6, §7

E. coli A9675 = assay: Antibiotic activity in nutrient broth (MIC), E. coli A9675; assay type: cell-based; details: Escherichia coli, 10^-4 dilution, Ex. 1/Ex. 2 figures recalculated on penicillin content
Description: as §1, §3, §4, §5, §6, §7

K. pneumoniae A9977 = assay: Antibiotic activity in nutrient broth (MIC), K. pneumoniae A9977; assay type: cell-based; details: Klebsiella pneumoniae, 10^-4 dilution, Ex. 1/Ex. 2 figures recalculated on penicillin content
Description: as §1, §3, §4, §5, §6, §7

Pr. mirabilis A9900 = assay: Antibiotic activity in nutrient broth (MIC), Pr. mirabilis; assay type: cell-based; details: Proteus mirabilis, 10^-4 dilution, Ex. 1/Ex. 2 figures recalculated on penicillin content
Description: as §1, §3, §4, §5, §6, §7

Ser. marcescens A20019 = assay: Antibiotic activity in nutrient broth (MIC), Ser. marcescens; assay type: cell-based; details: Serratia marcescens, 10^-4 dilution, Ex. 1/Ex. 2 figures recalculated on penicillin content
Description: as §1, §3, §4, §5, §6, §7

Ent. cloacae A9657 = assay: Antibiotic activity in nutrient broth (MIC), Ent. cloacae A9657; assay type: cell-based; details: Enterobacter cloacae, 10^-4 dilution, Ex. 1/Ex. 2 figures recalculated on penicillin content
Ent. cloacae A9659 = assay: Antibiotic activity in nutrient broth (MIC), Ent. cloacae A9659; assay type: cell-based; details: Enterobacter cloacae, 10^-4 dilution, Ex. 1/Ex. 2 figures recalculated on penicillin content
[1] = Mouse blood levels after oral administration; details: 100 mg./kg., tested twice, average of 6 mice each
[2] = Mouse blood levels after intramuscular administration; details: 10 mg./kg., average of six animals, unit assumed
[3] = 250 mg./ml., cited from earlier work
S. aureus bx 1633 A9606 = assay: Antibiotic activity in nutrient broth (MIC), S. aureus bx 1633; assay type: cell-based; details: Ex. 1/Ex. 2 figures recalculated on penicillin content
[4] = system: S. aureus Meth.-res. A15097; assay: Antibiotic activity in nutrient broth (MIC), S. aureus Meth.-res.; assay type: cell-based; details: Staphylococcus aureus
K. pneumoniae A15130 = assay: Antibiotic activity in nutrient broth (MIC), K. pneumoniae A15130; assay type: cell-based; details: Klebsiella pneumoniae, nutrient broth, 10^-4 dilution, Ex. 1/Ex. 2 figures recalculated on penicillin content, read-out: MIC
Pr. morganii A15153 = assay: Antibiotic activity in nutrient broth (MIC), Pr. morganii; assay type: cell-based; details: Morganella morganii, 10^-4 dilution, Ex. 1/Ex. 2 figures recalculated on penicillin content
Ps. aeruginosa A9843A = assay: Antibiotic activity in nutrient broth (MIC), Ps. aeruginosa; assay type: cell-based; details: Pseudomonas aeruginosa
Ent. cloacae A9656 = assay: Antibiotic activity in nutrient broth (MIC), Ent. cloacae A9656; assay type: cell-based; details: Enterobacter cloacae, 10^-4 dilution, Ex. 1/Ex. 2 figures recalculated on penicillin content
[5] = Stability of reconstituted aqueous solution; assay type: physicochemical; details: 250 mg./ml. of activity
[6] = Hydrolysis to parent penicillin (paper strip and liquid chromatography); assay type: in vitro ADME; details: 0.2 mg./ml., pH 6.5-7.0 buffer or serum
Bioassay = details: theory 730 (Ex. 1) / 596 (Ex. 2) mcg./mg.
[7] = Oral and intramuscular rat blood levels; assay type: in vivo
[8] = In vitro antibacterial spectrum / activity; assay type: cell-based; details: vs amoxicillin (Ex. 1) or ampicillin (Ex. 2)
Hygroscopicity = assay type: physicochemical; details: solid product
[9] = SMITHA9537, nutrient broth, no serum

| Compound | MIC (Str. pneumoniae A9585) | MIC (Str. pyogenes A9604) | MIC (S. aureus Smith A9537; SMITHA9537, +50% serum) | MIC (S. aureus Smith A9537; [9]) | MIC (Sal. enteritidis A9531) | MIC (E. coli Juhl A15119) | MIC (E. coli A9675) | MIC (K. pneumoniae A9977) | MIC (Pr. mirabilis A9900) | MIC (Ser. marcescens A20019) | MIC (Ent. cloacae A9657) | MIC (Ent. cloacae A9659) | Mouse blood level ([2]; 0.25 hours) | Mouse blood level ([2]; 0.5 hours) | Mouse blood level ([2]; 1 hour) | Mouse blood level ([2]; 1.5 hours) | also measured |
| --- | --- | --- | --- | --- | --- | --- | --- | --- | --- | --- | --- | --- | --- | --- | --- | --- | --- |
| CC1(C)S[C@@H]2[C@H](NC(=O)[C@H](N)c3ccccc3)C(=O)N2[C@H]1C(=O)O [Ampicillin, D(-)-α-aminobenzyl-penicillin, reference compound] | 8 ng/mL | 8 ng/mL | 0.13 µg/mL (≈ 0.372 µM) | 0.13 µg/mL (≈ 0.372 µM) | 0.013 µg/mL (≈ 0.0372 µM) | 2 µg/mL (≈ 5.72 µM) | 16 µg/mL (≈ 45.8 µM) | 0.25 µg/mL (≈ 0.715 µM) | 0.25 µg/mL (≈ 0.715 µM) | 32 µg/mL (≈ 91.6 µM) | 32 µg/mL (≈ 91.6 µM) | 63 µg/mL (≈ 180 µM) | – | – | – | – | – |
| CC1(C)S[C@@H]2[C@H](NC(=O)[C@H](N)c3ccc(O)cc3)C(=O)N2[C@H]1C(=O)O [Amoxicillin, D(-)-α-amino-p-hydroxybenzylpenicillin, reference compound] | ≤ 2 ng/mL | ≤ 2 ng/mL | 0.008 µg/mL (≈ 0.0219 µM) | 0.008 µg/mL (≈ 0.0219 µM) | 0.008 µg/mL (≈ 0.0219 µM) | 0.5 µg/mL (≈ 1.37 µM) | 8 µg/mL (≈ 21.9 µM) | – | ≤ 0.016 µg/mL | 16 µg/mL (≈ 43.8 µM) | 63 µg/mL (≈ 172 µM) | – | 7.7 µg/mL | 4.3 µg/mL | 1.9 µg/mL | 0.6 µg/mL | Blood level ([1]; 0.5 hours, in µg/mL (unit assumed)): 7.9 and 13.9; Blood level ([1]; 1 hour, in µg/mL (unit assumed)): 7.4 and 12.4; Blood level ([1]; 2 hours, in µg/mL (unit assumed)): 4.6 and 5.8; Blood level ([1]; 3.5 hours, in µg/mL (unit assumed)): 1.5 and 0.8 |
| CC1(C)S[C@@H]2[C@H](NC(=O)[C@H](N)c3ccc(O)cc3)C(=O)N2[C@H]1C(=O)O [potassium salt] | – | – | – | – | – | – | – | – | – | – | – | – | – | – | – | – | stable (reconstituted with water) ([3]; room temperature): 15 min; precipitation from solution on standing ([3]; reconstituted with water): precipitates out of solution on standing |
| CC1(C)S[C@@H]2[C@H](N3C(=O)[C@@H](c4ccccc4)NC3c3ccc(S(=O)(=O)O)o3)C(=O)N2[C@H]1C(=O)O (mixture of isomers) [Example 2, Disodium 6-[D(-)2-(±)5-Sulfo-2-furyl-5-oxo-4-phenyl-1-imidazolidinyl]penicillanate] | 4 ng/mL | 4 ng/mL | 0.06 µg/mL | 0.06 µg/mL | 0.013 µg/mL | 2 µg/mL | 16 µg/mL | 0.5 µg/mL | 0.13 µg/mL | 32 µg/mL | 32 µg/mL | 63 µg/mL | 6.3 µg/mL | 3.7 µg/mL | 1.3 µg/mL | 0.6 µg/mL | MIC (S. aureus bx 1633 A9606; 10^-2 dilution): > 125 µg/mL; MIC (S. aureus bx 1633 A9606; Staphylococcus aureus, BX1633A9606, 10^-3 dilution, read-out: MIC): > 125 µg/mL; MIC [4]: > 125 µg/mL; MIC (K. pneumoniae A15130): 63 µg/mL; MIC (Pr. morganii A15153): > 125 µg/mL; MIC (Ps. aeruginosa A9843A): > 125 µg/mL; MIC (Ent. cloacae A9656): > 125 µg/mL; stable at room temperature (reconstituted aqueous solution) [5]: at least 24 hours; hydrolysis in water to parent penicillin ([6]; room temperature and 37° C.): rapidly hydrolyzes in water; hydrolyzed at 0 time by liquid chromatography ([6]; to ampicillin, 0 time): 60-70%; Bioassay (Bioassay): 578 µg/mg; Intramuscular rat blood levels compared with parent penicillin ([7]; intramuscular): substantially equal to those of ampicillin; Oral rat blood levels compared with parent penicillin ([7]; oral): substantially equal to those of ampicillin; in vitro antibacterial spectrum compared with parent penicillin [8]: substantially equivalent to that of ampicillin; hygroscopicity (Hygroscopicity): non-hygroscopic; Blood level ([1]; 1 hour, listed as Ex. 2, in µg/mL (unit assumed)): 2.8 and 5.2; Blood level ([1]; 2 hours, listed as Ex. 2, in µg/mL (unit assumed)): 1.4 and 2.2; Blood level ([1]; 3.5 hours, listed as Ex. 2, in µg/mL (unit assumed)): 0.4 and 0.6 |

— patent publication US4035381A, “Antibacterial agents” (priority 1976, dated 1977)
